{"source": "patent US9682061B2", "about": "“Methods of treating bacterial infections using oritavancin” (THE MEDICINES COMPANY, priority 2009, dated 2017)", "key": {"[1]": {"assay": "Serum protein binding estimated from MIC shift, serum vs serum ultrafiltrate (dog)", "format": "in vitro ADME", "settings": "beagle dog serum; from mean MICs, broth microdilution; this study; read-out: % Bound (protein binding estimate) (converted)", "from_the_text": "(§1) Avid binding of oritavancin (ORI) to filtration and dialysis membranes renders most protein binding methodologies unsuitable. To control for any impact of serum components on bacterial growth and antibiotic activity, MIC shifts (from arithmetic drug dilutions) and area under the inhibitory curve (AUIC) shifts (from time-kill assays) were quantified in the presence of serum (SER) compared to SER ultrafiltrate (ULTRA; free of albumin) to estimate ORI binding to serum. In this manner, the extent of reduction in oritavancin activity in serum was related to its degree of serum protein binding. The method was benchmarked using daptomycin and ceftriaxone (Lee et al., Antimicrob Agents Chemother. 35:2505-2508 (1991); Schmidt et al., Antimicrob Agents Chemother. 52:3994-4000 (2008); Yuk et al., Clin Pharmacokinet. 17:223-235 (1989); McKay et al., Evaluation of oritavancin activity in vitro in the presence of human and mouse serum, abstr P1854. Abstr. 19th European Congress of Clinical Microbiology and Infectious Diseases. European Society of Clinical Microbiology and Infectious Diseases, Basel, Switzerland, May 16, 2009).\n(§2) Pooled sera from humans, mice and rats were obtained from Equitech-Bio (Kerrville, Tex.); pooled serum from beagle dogs was from Bioreclamation (Liverpool, N.Y.). ULTRA was prepared using Centricon Plus-50 ultrafilters (Millipore, Billerica, Mass.), whose molecular weight cutoff (50 kDa) excludes albumin. ORI stock solutions were prepared following CLSI M100-818 (Clinical and Laboratory Standards Institute. 2008. CLSI document M100-S18). Staphylococcus aureus ATCC 29213 was used as the test isolate at a final inoculum of ˜5×10^5 CFU/mL in both MIC and AUIC studies.\n(§3) Arithmetic MICs: Broth microdilution MIC assays with Staphylococcus aureus ATCC 29213 were based on CLSI guidelines (Clinical and Laboratory Standards Institute, 2009, CLSI document M7-A7). Growth media were 95% serum:5% CAMHB and 95% serum ultrafiltrate:5% CAMHB. […] Percent binding in serum was calculated as follows: % Bound=(1−[mean MICultrafiltrate/mean MICserum]×100%"}, "[2]": {"assay": "Serum protein binding from time-kill AUIC shift, serum vs serum ultrafiltrate (human)", "format": "in vitro ADME", "settings": "pooled human serum compared with serum ultrafiltrate, read-out: Protein binding from area under the bacterial kill curves (converted)", "from_the_text": "as §1, §2\n(§4) AUIC studies: Time-kill studies were performed using S. aureus ATCC 29213 at a final inoculum of 1×10^6 CFU/mL in 95% serum:5% CAMHB and in 95% serum ultrafiltrate:5% CAMHB. […] The AUIC was calculated using GraphPad Prism software. Percent binding in serum was calculated as follows: % Bound=(1−[AUICultrafiltrate/AUICserum]×100%"}, "[3]": {"test_system": "human plasma", "settings": "broth microdilution, various concentrations, Zhanel et al. 1998; cited from earlier work"}, "[4]": {"assay": "Serum protein binding from time-kill AUIC shift, serum vs serum ultrafiltrate (mouse)", "format": "in vitro ADME", "settings": "pooled mouse serum compared with serum ultrafiltrate, read-out: Protein binding from area under the bacterial kill curves (converted)", "from_the_text": "as §1, §2, §4"}, "[5]": {"test_system": "mouse serum", "settings": "broth microdilution, various concentrations, Craig, unpublished; cited from earlier work"}, "[6]": {"assay": "Serum protein binding estimated from MIC shift, serum vs serum ultrafiltrate (mouse)", "format": "in vitro ADME", "settings": "mouse serum; from mean MICs, broth microdilution; this study; read-out: % Bound (protein binding estimate) (converted)", "from_the_text": "as §1, §2, §3"}, "[7]": {"assay": "Serum protein binding estimated from MIC shift, serum vs serum ultrafiltrate (rat)", "format": "in vitro ADME", "settings": "from mean MICs, broth microdilution, this study, read-out: % Bound (protein binding estimate) (converted)", "from_the_text": "as §1, §2, §3"}, "[8]": {"assay": "Protein binding estimates from time kill-based assays, summary", "format": "in vitro ADME", "settings": "human, mouse, pooled serum compared with serum ultrafiltrate; this study; summary value", "from_the_text": "Avid binding of oritavancin (ORI) to filtration and dialysis membranes renders most protein binding methodologies unsuitable. To control for any impact of serum components on bacterial growth and antibiotic activity, MIC shifts (from arithmetic drug dilutions) and area under the inhibitory curve (AUIC) shifts (from time-kill assays) were quantified in the presence of serum (SER) compared to SER ultrafiltrate (ULTRA; free of albumin) to estimate ORI binding to serum. In this manner, the extent of reduction in oritavancin activity in serum was related to its degree of serum protein binding. […]\nas §4"}, "[9]": {"test_system": "serum protein", "assay": "Serum protein binding from MIC shift, summary across species", "format": "in vitro ADME, human, mouse, rat, dog", "settings": "cross-species comparative study and concordant data", "from_the_text": "as §1, §2, §3"}, "[10]": {"assay": "Serum protein binding from MIC shift, summary across species", "format": "in vitro ADME, human, mouse, rat, dog", "settings": "beagle (dog); human, mouse, rat, dog serum; MIC shift; read-out: Mean serum protein binding, range for the four species tested", "from_the_text": "as §1, §2, §3"}, "[11]": {"test_system": "human serum", "settings": "broth microdilution, various concentrations, Craig, unpublished; cited from earlier work"}, "[12]": {"test_system": "human plasma", "settings": "DCC adsorption, 1-91 μg/ml, Rowe and Brown 2001; cited from earlier work"}, "[13]": {"test_system": "S. aureus ATCC 29213", "assay": "Broth microdilution MIC with arithmetic drug dilutions", "format": "cell-based, Staphylococcus aureus", "settings": "for MIC: Staphylococcus aureus", "experimental": "as §2\nArithmetic MICs: Broth microdilution MIC assays with Staphylococcus aureus ATCC 29213 were based on CLSI guidelines (Clinical and Laboratory Standards Institute, 2009, CLSI document M7-A7). Growth media were 95% serum:5% CAMHB and 95% serum ultrafiltrate:5% CAMHB. Arithmetic dilutions of oritavancin and comparators were used to increase precision of minimum inhibitory concentration (MIC) values relative to doubling dilutions. Percent binding in serum was calculated as follows: % Bound=(1−[mean MICultrafiltrate/mean MICserum]×100%"}, "[14]": {"biological_target": "Albumin (Homo sapiens, UniProt P02768)", "sequence (P02768 25-609)": "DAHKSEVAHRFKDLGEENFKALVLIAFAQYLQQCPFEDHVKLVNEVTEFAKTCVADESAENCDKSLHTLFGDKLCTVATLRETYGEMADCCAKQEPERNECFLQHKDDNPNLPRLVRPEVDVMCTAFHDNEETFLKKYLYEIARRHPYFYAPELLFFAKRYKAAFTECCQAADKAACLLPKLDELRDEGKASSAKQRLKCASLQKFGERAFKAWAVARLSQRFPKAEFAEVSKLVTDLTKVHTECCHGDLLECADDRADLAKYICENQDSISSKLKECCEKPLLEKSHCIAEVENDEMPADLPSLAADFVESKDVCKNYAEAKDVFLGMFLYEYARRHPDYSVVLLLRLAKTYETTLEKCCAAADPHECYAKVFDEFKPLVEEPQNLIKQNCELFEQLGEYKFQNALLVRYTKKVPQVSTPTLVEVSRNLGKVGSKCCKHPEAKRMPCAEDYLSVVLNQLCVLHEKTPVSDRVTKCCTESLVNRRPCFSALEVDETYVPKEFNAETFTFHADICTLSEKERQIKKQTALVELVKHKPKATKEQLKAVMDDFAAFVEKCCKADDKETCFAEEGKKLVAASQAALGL", "settings": "cantilever nanosensor, 0.2 μg/ml, McKendry, unpublished; cited from earlier work"}, "[15]": {"test_system": "rat plasma", "settings": "broth microdilution, various concentrations, cited from earlier work"}, "[16]": {"assay": "Serum protein binding estimated from MIC shift, serum vs serum ultrafiltrate (human)", "format": "in vitro ADME", "settings": "from mean MICs, broth microdilution, this study, read-out: % Bound (protein binding estimate) (converted)", "from_the_text": "as §1, §2, §3"}, "[17]": {"test_system": "exponentially-growing S. aureus (MSSA, MRSA, VRSA)", "settings": "within 15 minutes to 2 hours; against MSSA, MRSA, and VRSA; McKay et al. 2009; cited from earlier work"}}, "note": "Like-named read-outs stand apart in the source and are kept apart here.", "data": [{"smiles": "CN[C@H](CC(C)C)C(=O)N[C@H]1C(=O)N[C@@H](CC(N)=O)C(=O)N[C@H]2C(=O)N[C@H]3C(=O)N[C@H](C(=O)N[C@H](C(=O)O)c4cc(O)cc(O)c4-c4cc3ccc4O)[C@H](O[C@H]3C[C@](C)(N)[C@@H](O)[C@H](C)O3)c3ccc(c(Cl)c3)Oc3cc2cc(c3O[C@@H]2O[C@H](CO)[C@@H](O)[C@H](O)[C@H]2O[C@H]2C[C@](C)(NCc3ccc(-c4ccc(Cl)cc4)cc3)[C@@H](O)[C@H](C)O2)Oc2ccc(cc2Cl)[C@H]1O", "note": "[Oritavancin, N-(4-(4-chlorophenyl)benzyl)A82846B]", "values": [{"measurement": "fraction unbound", "setting": "[1]", "result": 0.129}, {"measurement": "fraction unbound at 0.5 μg/ml", "setting": "[2]; 0.5 μg/ml oritavancin", "result": 0.326}, {"measurement": "fraction unbound at 1 μg/ml", "setting": "[2]; 1 μg/ml oritavancin", "result": 0.361}, {"measurement": "fraction unbound at 2 μg/ml", "setting": "[2]; 2 μg/ml oritavancin", "result": 0.383}, {"measurement": "Protein Binding", "setting": "[3]", "result": 87.5, "unit": "%"}, {"measurement": "fraction unbound at 0.5 μg/ml", "setting": "[4]; 0.5 μg/ml oritavancin", "result": 0.335}, {"measurement": "fraction unbound at 1 μg/ml", "setting": "[4]; 1 μg/ml oritavancin", "result": 0.317}, {"measurement": "fraction unbound at 2 μg/ml", "setting": "[4]; 2 μg/ml oritavancin", "result": 0.312}, {"measurement": "Protein Binding", "setting": "[5]", "result": 85.2, "unit": "%"}, {"measurement": "fraction unbound", "setting": "[6]", "result": 0.147}, {"measurement": "fraction unbound", "setting": "[7]", "result": 0.176}, {"measurement": "fraction unbound", "setting": "[8]", "result": "~0.35"}, {"measurement": "Bound to serum protein, overall conclusion across species", "setting": "[9]", "result": "approximately 85%"}, {"measurement": "fraction unbound", "setting": "[10]", "result": "0.129 to 0.181"}, {"measurement": "Protein Binding", "setting": "[11]", "result": 79.6, "unit": "%"}, {"measurement": "Protein Binding", "setting": "[12]", "result": "85.7-89.9%"}, {"measurement": "MIC", "setting": "[13]; ATCC29213, read-out: MIC, CAMHB, mean, cation-adjusted Mueller-Hinton broth, CLSI conditions, Dog", "result": 0.08, "unit": "µg/mL"}, {"measurement": "MIC", "setting": "[13]; ATCC29213, read-out: MIC, CAMHB, mean, cation-adjusted Mueller-Hinton broth, CLSI conditions, Human", "result": 0.084, "unit": "µg/mL"}, {"measurement": "MIC", "setting": "[13]; ATCC29213, read-out: MIC, CAMHB, mean, cation-adjusted Mueller-Hinton broth, CLSI conditions, Mouse", "result": 0.105, "unit": "µg/mL"}, {"measurement": "MIC", "setting": "[13]; ATCC29213, read-out: MIC, CAMHB, mean, cation-adjusted Mueller-Hinton broth, CLSI conditions, Rat", "result": 0.086, "unit": "µg/mL"}, {"measurement": "MIC", "setting": "[13]; ATCC29213, read-out: MIC, Serum, mean, 95% dog serum + 5% CAMHB", "result": 0.475, "unit": "µg/mL"}, {"measurement": "MIC", "setting": "[13]; ATCC29213, read-out: MIC, Serum, mean, 95% human serum + 5% CAMHB", "result": 0.775, "unit": "µg/mL"}, {"measurement": "MIC", "setting": "[13]; ATCC29213, read-out: MIC, Serum, mean, 95% mouse serum + 5% CAMHB", "result": 0.538, "unit": "µg/mL"}, {"measurement": "MIC", "setting": "[13]; ATCC29213, read-out: MIC, Serum, mean, 95% rat serum + 5% CAMHB", "result": 0.313, "unit": "µg/mL"}, {"measurement": "MIC", "setting": "[13]; ATCC29213, read-out: MIC, Ultrafiltrate, mean, 95% dog serum ultrafiltrate + 5% CAMHB", "result": 0.061, "unit": "µg/mL"}, {"measurement": "MIC", "setting": "[13]; ATCC29213, read-out: MIC, Ultrafiltrate, mean, 95% human serum ultrafiltrate + 5% CAMHB", "result": 0.14, "unit": "µg/mL"}, {"measurement": "MIC", "setting": "[13]; ATCC29213, read-out: MIC, Ultrafiltrate, mean, 95% mouse serum ultrafiltrate + 5% CAMHB", "result": 0.079, "unit": "µg/mL"}, {"measurement": "MIC", "setting": "[13]; ATCC29213, read-out: MIC, Ultrafiltrate, mean, 95% rat serum ultrafiltrate + 5% CAMHB", "result": 0.055, "unit": "µg/mL"}, {"measurement": "Mean Fold MIC Increase", "setting": "[13]; mean MIC in 95% dog serum / mean MIC in 95% dog serum ultrafiltrate", "result": 7.8, "unit": "fold"}, {"measurement": "Mean Fold MIC Increase", "setting": "[13]; mean MIC in 95% human serum / mean MIC in 95% human serum ultrafiltrate", "result": 5.5, "unit": "fold"}, {"measurement": "Mean Fold MIC Increase", "setting": "[13]; mean MIC in 95% mouse serum / mean MIC in 95% mouse serum ultrafiltrate", "result": 6.8, "unit": "fold"}, {"measurement": "Mean Fold MIC Increase", "setting": "[13]; mean MIC in 95% rat serum / mean MIC in 95% rat serum ultrafiltrate", "result": 5.7, "unit": "fold"}, {"measurement": "Protein Binding", "setting": "[14]", "result": "79 ± 0.2", "unit": "%"}, {"measurement": "Protein Binding", "setting": "[15]; Zhanel et al. 1998, listed as oritavancin", "result": "greater than 80%"}, {"measurement": "Protein Binding", "setting": "[15]; Zhanel et al. 1998", "result": ">80", "unit": "%"}, {"measurement": "fraction unbound", "setting": "[16]", "result": 0.181}, {"measurement": "Bactericidal activity, log reduction", "setting": "[17]", "result": "≥ 3", "unit": "log"}]}]}
